In paper PMC5300155, “Biochemical and biophysical investigations of the interaction between human glucokinase and pro-apoptotic BAD” (PLoS ONE, 2017):
Entries after “also recorded” stand apart in the source; their conditions may differ.

T1: human pancreatic GCK (Homo sapiens, UniProt P35557)
T1 construct: hexahistidine (N); made in house; host or cells: glucokinase auxotroph BM5340(DE3)
T1 sequence (P35557 1-465): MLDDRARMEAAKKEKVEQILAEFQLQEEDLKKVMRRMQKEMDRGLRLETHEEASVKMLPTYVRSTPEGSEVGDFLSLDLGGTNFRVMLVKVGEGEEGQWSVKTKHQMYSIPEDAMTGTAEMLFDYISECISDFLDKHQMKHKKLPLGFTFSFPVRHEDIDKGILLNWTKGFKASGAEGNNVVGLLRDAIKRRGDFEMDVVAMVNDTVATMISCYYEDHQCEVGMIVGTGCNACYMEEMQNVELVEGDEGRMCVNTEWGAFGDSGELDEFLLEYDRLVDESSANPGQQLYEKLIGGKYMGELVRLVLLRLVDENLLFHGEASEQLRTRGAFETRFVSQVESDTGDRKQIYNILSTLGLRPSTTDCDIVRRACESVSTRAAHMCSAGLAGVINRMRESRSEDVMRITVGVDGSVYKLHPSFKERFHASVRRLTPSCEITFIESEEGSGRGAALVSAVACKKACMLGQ


Experiments:
[1] = target: T2, Bcl-xL (Homo sapiens, UniProt Q07817, DEL45-84); test: Fluorescence polarization competition with f-BH3 for binding to Bcl-xL
T2 construct: made in house
T2 sequence (Q07817 with tags, fused parts or gaps DEL45-84): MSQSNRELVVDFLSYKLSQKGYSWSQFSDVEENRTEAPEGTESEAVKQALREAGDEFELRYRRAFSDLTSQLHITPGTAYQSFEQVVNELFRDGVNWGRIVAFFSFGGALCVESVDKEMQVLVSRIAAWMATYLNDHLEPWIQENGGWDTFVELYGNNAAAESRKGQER
Procedure: Exon 1 of human bcl-xl lacking the C-terminal residues 189–233 was obtained from Stanley Korsmeyer (Addgene plasmid 8755) and site-directed mutagenesis was performed to create the Δ45–84, Δ210–233 variant. Bcl-xL was expressed and purified using a modified procedure described previously. Briefly, Bcl-xL was purified by nickel affinity chromatography and dialyzed against potassium phosphate buffer (20 mM, pH 7.4) containing NaCl (50 mM), EDTA (1 mM), and DTT (10 mM). Protein was applied to a Superdex 200 10/30 HR size-exclusion column, at a flow rate of 0.02 mL/min, to remove aggregate and oligomers prior to binding assays.
A fluorescence polarization assay developed by Zhang, et al. was utilized to measure interactions between BAD and its binding partners. Two 21-residue FITC-labeled peptides containing the BH3 domain of BAD were synthesized and purified to >95% by Peptide2.0 (f-BH3 = NLWAAQRYGRELRRMSDK(FITC)FVD; f-pBH3 = NLWAAQRYGRELRRM(p)SDK(FITC) FVD). Polarization was measured at room temperature with an excitation wavelength of 485 nm and an emission wavelength of 530 nm using a SpectraMax M5 microplate reader (Molecular Devices). Experiments to measure binding constants of the fluorescent peptides to Bcl-xL or GCK were performed in black 96-well plates. Each well contained 15 nM peptide, 60 μL BAD buffer (0.1 M Tris, 0.1 M KCl, 0.5 M arginine, 2.5 mM CHAPS, 5 mM TCEP, 10% glycerol, pH 8.5) and variable concentrations of Bcl-xL (0–2.25 μM) or GCK (0–400 μM) in assay buffer (20 mM phosphate buffer, pH 7.4, 1 mM EDTA, 50 mM NaCl, 10 mM DTT) in a final volume of 120 μL. High GCK concentrations were chosen in an effort to detect a signal indicating a binding event. Assays containing GCK also contained 250 mM glucose. […] Plates were incubated at room temperature in the dark for 15 min prior to polarization measurements.

[2] = target: T1, human pancreatic GCK; test: GCK activity, G6PDH-linked assay (lab's routine assay, 25°C); format: biochemical
Procedure: Recombinant human pancreatic GCK containing an N-terminal hexahistidine tag was produced in the glucokinase auxotroph BM5340(DE3) and purified using a previously described procedure. TEV protease was expressed as a GST-fusion protein from a pGEX plasmid encoding the S219V variant, provided by David Waugh (Addgene plasmid 8827). Expression was induced with IPTG (1 mM) for 4 h at 30°C. Cell pellets were resuspended in Tris buffer (50 mM, pH 8.0) containing NaCl (100 mM), glycerol (10% v/v), benzamidine (1 mM) and dithiothreitol (10 mM) and lysed via French Press. Polyethyleneimine (0.1%) was added to the lysate and protein was purified on a glutathione-affinity column (GSTrap, GE Sciences). TEV protease was flash frozen and stored at -80°C for up to 1 month.
GCK activity was assayed using a glucose 6-phosphate dehydrogenase (G6PDH)-linked assay at 25°C. 50 nM GCK was assayed in buffer containing HEPES (100 mM, pH 7.4), KCl (50 mM), NADP^+ (0.5 mM), DTT (10 mM), MgCl2 (7 mM), G6PDH (1.5 U) and glucose (0–100 mM) in a total volume of […]. Addition of ATP (6 mM) initiated the reaction. Production of NADPH was measured at 340 nm. To determine the effect of BAD on GCK activity, 5 μL of BAD or buffer control was added to the reaction in a final volume of 100 μL. K0.5 values were determined by fitting to the Hill equation. The effect of BAD on GCK activity is reported as the percent rate increase at individual glucose concentrations, calculated as the average of a minimum of four rates of BAD-containing assays divided by the average of rates of BAD buffer-containing assays. The results represent the average of at least three independent preparations of pure BAD.

[3] = target: T2, Bcl-xL; test: Size-exclusion chromatography of 1:1 mixture with Bcl-xL; format: binding; details: 1:1 mixture of purified Bcl-xL and BAD-GST; BAD buffer pH 8.5, 4°C
Procedure: Size-exclusion chromatography was performed on a HiPrep 16/60 Sephacryl S-200 HR column (GE Healthcare) connected to a Bio-Rad DuoFlow FPLC. The column was calibrated with thyroglobulin (669 kDa), γ-globulin (158 kDa), ovalbumin (43 kDa), myoglobin (17 kDa), and vitamin B12 (1.35 kDa). All proteins were analyzed in BAD buffer (0.1 M Tris, 0.1 M KCl, 0.5 M arginine, 2.5 mM CHAPS, 5 mM TCEP, 10% glycerol, pH 8.5) at a flow rate of 0.02 mL/min at 4°C. Protein samples were concentrated to 800 μL and filtered through 0.2 μm filters before injection onto the size-exclusion column. For complex formation, equimolar mixtures of proteins were added to BAD buffer in a final volume of 800 μL and incubated on ice 30 min prior to injection onto the column.

IC50 ([1]; 200 nM f-BH3, 50 nM Bcl-xL, competitor 0–50 μM, room temperature, 15 min)	Increase in GCK rate ([2]; 0.8 mM glucose, BAD-GST ≥ 2 μM, average of at least three independent BAD preparations)	Increase in GCK activity (abstract) ([2]; high concentrations of recombinant BAD, glucose well below K0.5)	Molecule	Ability to interact with Bcl-xL (in words) ([1]; ITC and fluorescence polarization assays)	Hill coefficient H of GCK in presence of pBH3 ([2]; Fig 6B, GCK alone: H = 1.4)	K0.5 (glucose) of GCK in presence of pBH3 ([2]; Fig 6B, GCK alone: K0.5 = 4.6 mM, Hill equation fit)	kcat of GCK in presence of pBH3 ([2]; Fig 6B, GCK alone: kcat = 33.2 s^-1)	Change in GCK activity, peptide up to 50 μM ([2]; peptide concentrations up to 50 μM)	Effect on kcat, K0.5 or Hill coefficient of GCK (peptide) ([2]; peptide up to 5 μM)	Effect on kcat, K0.5 or Hill coefficient of GCK (BAD-GST) ([2]; BAD-GST 8 μM, variable glucose)	Stimulation of GCK activity (in words) ([2]; glucose 0.5–1.0 mM)	Complex formation with Bcl-xL by size-exclusion chromatography [3]
–	–	–	NLWAAQRYGRELRRM(p)SDKFVD [pBH3, 21-residue phosphorylated peptide containing the BH3 domain of BAD]	significantly impaired in their ability to interact with Bcl-xL	1.5	3.7 mM	31.4 s^-1	no change in GCK activity	does not impact the kcat, K0.5 or Hill coefficient of human GCK	–	–	–
130 nM	10%	< 15%	BAD-GST: recombinant human BAD with N-terminal hexahistidine tag and C-terminal GST fusion, TEV consensus sequence between (protein, left off: His6, N-terminal, state not stated | GST, C-terminal, kept) MFQIPEFEPSEQEDSSSAERGLGPSPAGDGPSGSGKHHRQAPGLLWDASHQQEQPTSSSHHGGAGAVEIRSRHSSYPAGTEDDEGMGEEPSPFRGRSRSAPPNLWAAQRYGRELRRMSDEFVDSFKKGLPRPKSAGTATQMRQSSSWTRVFQSWWDRNLGRGSSAPSQ	–	–	–	–	–	–	does not alter the kcat, K0.5 or Hill coefficient of GCK	small, but statistically significant extent	three peaks corresponding to monomeric Bcl-xL, the BAD-GST dimer, and the BAD-GST:Bcl-xL complex; also recorded: confirms formation of a higher molecular weight complex between BAD-GST and Bcl-xL
